Test results: the supplement of paper PMC10307832

How the values were obtained:
Experiment in all cases: relative viability (nuclei count vs DMSO), 5 days (fraction); higher = more cells survive
EHT 1864 + Tozasertib = compound: C1COCCN1CC2=CC(=O)C(=CO2)OCCCCCSC3=C4C=CC(=CC4=NC=C3)C(F)(F)F [EHT 1864] + Cc1cc(Nc2cc(N3CCN(C)CC3)nc(Sc3ccc(NC(=O)C4CC4)cc3)n2)n[nH]1 [Tozasertib] (partner 0.1 µM)
Procedure, shortened: (§1)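 Relative viability divides the nuclei count in treated wells by that in vehicle wells. Lung cancer cell lines were seeded in 1536-well plates, dosed by pin tool the next day, and fixed and stained after 5 days in one step with final 0.05% Triton X-100, 1% formaldehyde and 1 ug/ml Hoechst. Dosing was a single drug or a fixed anchor-drug dose plus five library-drug doses (not always all listed) in √10 steps, and values are medians of duplicate plates imaged at 4×.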

EHT 1864 + Dasatinib = compound: C1COCCN1CC2=CC(=O)C(=CO2)OCCCCCSC3=C4C=CC(=CC4=NC=C3)C(F)(F)F [EHT 1864] + Cc1nc(Nc2ncc(C(=O)Nc3c(C)cccc3Cl)s2)cc(N2CCN(CCO)CC2)n1 [Dasatinib] (partner 0.075 µM)
Procedure, shortened: as §1

EHT 1864 + Luminespib = compound: C1COCCN1CC2=CC(=O)C(=CO2)OCCCCCSC3=C4C=CC(=CC4=NC=C3)C(F)(F)F [EHT 1864] + CCNC(=O)c1noc(-c2cc(C(C)C)c(O)cc2O)c1-c1ccc(CN2CCOCC2)cc1 [Luminespib] (partner 0.01 µM)
Procedure, shortened: as §1

EHT 1864 + Phenformin = compound: C1COCCN1CC2=CC(=O)C(=CO2)OCCCCCSC3=C4C=CC(=CC4=NC=C3)C(F)(F)F [EHT 1864] + N=C(N)NC(=N)NCCc1ccccc1 [Phenformin] (partner 250 µM)
Procedure, shortened: as §1

EHT 1864 + OSI-027 = compound: C1COCCN1CC2=CC(=O)C(=CO2)OCCCCCSC3=C4C=CC(=CC4=NC=C3)C(F)(F)F [EHT 1864] + COc1cccc2cc(-c3nc([C@H]4CC[C@H](C(=O)O)CC4)n4ncnc(N)c34)[nH]c12 [OSI-027] (partner 0.5 µM)
Procedure, shortened: as §1

EHT 1864 + Foretinib = compound: C1COCCN1CC2=CC(=O)C(=CO2)OCCCCCSC3=C4C=CC(=CC4=NC=C3)C(F)(F)F [EHT 1864] + COc1cc2c(Oc3ccc(NC(=O)C4(C(=O)Nc5ccc(F)cc5)CC4)cc3F)ccnc2cc1OCCCN1CCOCC1 [Foretinib] (partner 0.25 µM)
Procedure, shortened: as §1

EHT 1864 = compound: C1COCCN1CC2=CC(=O)C(=CO2)OCCCCCSC3=C4C=CC(=CC4=NC=C3)C(F)(F)F [EHT 1864]
Procedure, shortened: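 Hoechst staining, done together with fixation and permeabilisation, marked nuclei for 4× imaging and MetaXpress counting. This followed 5 days without medium change after lung cancer cell lines, kept overnight at 37 °C in 1536-well plates, were pinned with five library-drug doses (not always all listed) spaced by √10 on vehicle-anchored plates. Viability is the ratio of treated-well to vehicle-well nuclei, expressed as a median across plates. Plates passed only at control CV below 25% with at least one doubling.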

EHT 1864 + Linsitinib = compound: C1COCCN1CC2=CC(=O)C(=CO2)OCCCCCSC3=C4C=CC(=CC4=NC=C3)C(F)(F)F [EHT 1864] + C[C@]1(O)C[C@@H](c2nc(-c3ccc4ccc(-c5ccccc5)nc4c3)c3c(N)nccn32)C1 [Linsitinib] (partner 1 µM)
Procedure, shortened: as §1

EHT 1864 + Pictilisib = compound: C1COCCN1CC2=CC(=O)C(=CO2)OCCCCCSC3=C4C=CC(=CC4=NC=C3)C(F)(F)F [EHT 1864] + CS(=O)(=O)N1CCN(Cc2cc3nc(-c4cccc5[nH]ncc45)nc(N4CCOCC4)c3s2)CC1 [Pictilisib] (partner 1 µM)
Procedure, shortened: as §1

EHT 1864 + Lapatinib = compound: C1COCCN1CC2=CC(=O)C(=CO2)OCCCCCSC3=C4C=CC(=CC4=NC=C3)C(F)(F)F [EHT 1864] + CS(=O)(=O)CCNCc1ccc(-c2ccc3ncnc(Nc4ccc(OCc5cccc(F)c5)c(Cl)c4)c3c2)o1 [Lapatinib] (partner 2 µM)
Procedure, shortened: as §1

EHT 1864 + Bortezomib = compound: C1COCCN1CC2=CC(=O)C(=CO2)OCCCCCSC3=C4C=CC(=CC4=NC=C3)C(F)(F)F [EHT 1864] + CC(C)C[C@H](NC(=O)[C@H](Cc1ccccc1)NC(=O)c1cnccn1)B(O)O [Bortezomib] (partner 0.002 µM)
Procedure, shortened: as §1

EHT 1864 + Crizotinib = compound: C1COCCN1CC2=CC(=O)C(=CO2)OCCCCCSC3=C4C=CC(=CC4=NC=C3)C(F)(F)F [EHT 1864] + C[C@@H](Oc1cc(-c2cnn(C3CCNCC3)c2)cnc1N)c1c(Cl)ccc(F)c1Cl [Crizotinib] (partner 1 µM)
Procedure, shortened: as §1

EHT 1864 + AZD7762 = compound: C1COCCN1CC2=CC(=O)C(=CO2)OCCCCCSC3=C4C=CC(=CC4=NC=C3)C(F)(F)F [EHT 1864] + NC(=O)Nc1cc(-c2cccc(F)c2)sc1C(=O)N[C@H]1CCCNC1 [AZD7762] (partner 0.2 µM)
Procedure, shortened: as §1

EHT 1864 + Alpelisib = compound: C1COCCN1CC2=CC(=O)C(=CO2)OCCCCCSC3=C4C=CC(=CC4=NC=C3)C(F)(F)F [EHT 1864] + Cc1nc(NC(=O)N2CCC[C@H]2C(N)=O)sc1-c1ccnc(C(C)(C)C(F)(F)F)c1 [Alpelisib] (partner 2 µM)
Procedure, shortened: as §1

EHT 1864 + Olaparib = compound: C1COCCN1CC2=CC(=O)C(=CO2)OCCCCCSC3=C4C=CC(=CC4=NC=C3)C(F)(F)F [EHT 1864] + O=C(c1cc(Cc2n[nH]c(=O)c3ccccc23)ccc1F)N1CCN(C(=O)C2CC2)CC1 [Olaparib] (partner 8 µM)
Procedure, shortened: as §1

EHT 1864 + Navitoclax = compound: C1COCCN1CC2=CC(=O)C(=CO2)OCCCCCSC3=C4C=CC(=CC4=NC=C3)C(F)(F)F [EHT 1864] + CC1(C)CCC(c2ccc(Cl)cc2)=C(CN2CCN(c3ccc(C(=O)NS(=O)(=O)c4ccc(N[C@H](CCN5CCOCC5)CSc5ccccc5)c(S(=O)(=O)C(F)(F)F)c4)cc3)CC2)C1 [Navitoclax] (partner 0.5 µM)
Procedure, shortened: as §1

Work on NCI-H1623 yielded a relative viability (EHT 1864 + Tozasertib; first compound 0.04 µM) of 0.418, a relative viability (EHT 1864 + Tozasertib; first compound 0.1265 µM) of 0.394 and a relative viability (EHT 1864 + Tozasertib; first compound 0.4 µM) of 0.445. The relative viability (EHT 1864 + Tozasertib; first compound 1.265 µM) was 0.458, the relative viability (EHT 1864 + Tozasertib; first compound 4 µM) was 0.399 and the relative viability (EHT 1864 + Dasatinib; first compound 0.04 µM) was 0.641. For the same cell line, the relative viability (EHT 1864 + Dasatinib; first compound 0.1265 µM) was 0.676, the relative viability (EHT 1864 + Dasatinib; first compound 0.4 µM) was 0.514 and the relative viability (EHT 1864 + Dasatinib; first compound 1.265 µM) was 0.583. It also gave a relative viability (EHT 1864 + Dasatinib; first compound 4 µM) of 0.477, a relative viability (EHT 1864 + Luminespib; first compound 0.04 µM) of 0.584 and a relative viability (EHT 1864 + Luminespib; first compound 0.1265 µM) of 0.522. It also gave a relative viability (EHT 1864 + Luminespib; first compound 0.4 µM) of 0.445, a relative viability (EHT 1864 + Luminespib; first compound 1.265 µM) of 0.581 and a relative viability (EHT 1864 + Luminespib; first compound 4 µM) of 0.384. For the same cell line, the relative viability (EHT 1864 + Phenformin; first compound 0.04 µM) was 0.617, the relative viability (EHT 1864 + Phenformin; first compound 0.1265 µM) was 0.665 and the relative viability (EHT 1864 + Phenformin; first compound 0.4 µM) was 0.576. For the same cell line, the relative viability (EHT 1864 + Phenformin; first compound 1.265 µM) was 0.617, the relative viability (EHT 1864 + Phenformin; first compound 4 µM) was 0.539 and the relative viability (EHT 1864 + OSI-027; first compound 0.04 µM) was 0.439. For the same cell line, the relative viability (EHT 1864 + OSI-027; first compound 0.1265 µM) was 0.433, the relative viability (EHT 1864 + OSI-027; first compound 0.4 µM) was 0.474 and the relative viability (EHT 1864 + OSI-027; first compound 1.265 µM) was 0.475. The relative viability (EHT 1864 + OSI-027; first compound 4 µM) was 0.432, the relative viability (EHT 1864 + Foretinib; first compound 0.04 µM) was 0.937 and the relative viability (EHT 1864 + Foretinib; first compound 0.1265 µM) was 0.869. For the same cell line, the relative viability (EHT 1864 + Foretinib; first compound 0.4 µM) was 0.855, the relative viability (EHT 1864 + Foretinib; first compound 1.265 µM) was 0.959 and the relative viability (EHT 1864 + Foretinib; first compound 4 µM) was 0.959. For the same cell line, the relative viability (EHT 1864; 0.04 µM) was 0.995, the relative viability (EHT 1864; 0.1265 µM) was 0.972 and the relative viability (EHT 1864; 0.4 µM) was 1.02. It also gave a relative viability (EHT 1864; 1.265 µM) of 0.921 and a relative viability (EHT 1864; 4 µM) of 1.14.
NCI-H1703 was tested, and the relative viability (EHT 1864 + Linsitinib; first compound 0.04 µM) was 0.725, the relative viability (EHT 1864 + Linsitinib; first compound 0.4 µM) was 0.931 and the relative viability (EHT 1864 + Linsitinib; first compound 1.265 µM) was 0.789. The relative viability (EHT 1864 + Linsitinib; first compound 4 µM) was 0.647, the relative viability (EHT 1864 + Pictilisib; first compound 0.04 µM) was 0.222 and the relative viability (EHT 1864 + Pictilisib; first compound 0.1265 µM) was 0.245. The relative viability (EHT 1864 + Pictilisib; first compound 0.4 µM) was 0.26, the relative viability (EHT 1864 + Pictilisib; first compound 1.265 µM) was 0.251 and the relative viability (EHT 1864 + Pictilisib; first compound 4 µM) was 0.266. For the same cell line, the relative viability (EHT 1864 + Lapatinib; first compound 0.04 µM) was 0.796, the relative viability (EHT 1864 + Lapatinib; first compound 0.1265 µM) was 0.857 and the relative viability (EHT 1864 + Lapatinib; first compound 0.4 µM) was 1.21. It also gave a relative viability (EHT 1864 + Lapatinib; first compound 1.265 µM) of 1.01, a relative viability (EHT 1864 + Lapatinib; first compound 4 µM) of 0.854 and a relative viability (EHT 1864 + Bortezomib; first compound 0.04 µM) of 0.253. It also gave a relative viability (EHT 1864 + Bortezomib; first compound 0.1265 µM) of 0.427, a relative viability (EHT 1864 + Bortezomib; first compound 0.4 µM) of 0.363 and a relative viability (EHT 1864 + Bortezomib; first compound 1.265 µM) of 0.307. For the same cell line, the relative viability (EHT 1864 + Bortezomib; first compound 4 µM) was 0.315, the relative viability (EHT 1864 + Crizotinib; first compound 0.04 µM) was 0.69 and the relative viability (EHT 1864 + Crizotinib; first compound 0.1265 µM) was 0.534. It also gave a relative viability (EHT 1864 + Crizotinib; first compound 0.4 µM) of 0.545, a relative viability (EHT 1864 + Crizotinib; first compound 1.265 µM) of 0.598 and a relative viability (EHT 1864 + Crizotinib; first compound 4 µM) of 0.487. For the same cell line, the relative viability (EHT 1864 + AZD7762; first compound 0.04 µM) was 0.128, the relative viability (EHT 1864 + AZD7762; first compound 0.4 µM) was 0.118 and the relative viability (EHT 1864 + AZD7762; first compound 1.265 µM) was 0.128. For the same cell line, the relative viability (EHT 1864 + AZD7762; first compound 4 µM) was 0.15, the relative viability (EHT 1864 + Alpelisib; first compound 0.04 µM) was 0.323 and the relative viability (EHT 1864 + Alpelisib; first compound 0.1265 µM) was 0.319. It also gave a relative viability (EHT 1864 + Alpelisib; first compound 0.4 µM) of 0.399, a relative viability (EHT 1864 + Alpelisib; first compound 1.265 µM) of 0.373 and a relative viability (EHT 1864 + Alpelisib; first compound 4 µM) of 0.366. It also gave a relative viability (EHT 1864 + Olaparib; first compound 0.04 µM) of 0.396, a relative viability (EHT 1864 + Olaparib; first compound 0.4 µM) of 0.461 and a relative viability (EHT 1864 + Olaparib; first compound 1.265 µM) of 0.277. It also gave a relative viability (EHT 1864 + Olaparib; first compound 4 µM) of 0.291, a relative viability (EHT 1864 + Navitoclax; first compound 0.04 µM) of 1.13 and a relative viability (EHT 1864 + Navitoclax; first compound 0.1265 µM) of 0.968. It also gave a relative viability (EHT 1864 + Navitoclax; first compound 0.4 µM) of 0.956, a relative viability (EHT 1864 + Navitoclax; first compound 1.265 µM) of 0.849 and a relative viability (EHT 1864 + Navitoclax; first compound 4 µM) of 0.749. The relative viability (EHT 1864 + Foretinib; first compound 0.04 µM) was 0.309, the relative viability (EHT 1864 + Foretinib; first compound 0.4 µM) was 0.299 and the relative viability (EHT 1864 + Foretinib; first compound 1.265 µM) was 0.339. It also gave a relative viability (EHT 1864 + Foretinib; first compound 4 µM) of 0.382, a relative viability (EHT 1864; 0.04 µM) of 0.929 and a relative viability (EHT 1864; 0.1265 µM) of 0.707. The relative viability (EHT 1864; 0.4 µM) was 0.939, the relative viability (EHT 1864; 1.265 µM) was 0.776 and the relative viability (EHT 1864; 4 µM) was 0.657.
